Data as given in article PMC7073184, “The Major Cat Allergen Fel d 1 Binds Steroid and Fatty Acid Semiochemicals: A Combined In Silico and In Vitro Study” (International Journal of Molecular Sciences, 2020).
Read-outs that look alike come from different tables or passages of the source.

Assays:
[1] = ref PubChem and ChemSpider; cited from earlier work
rFel d 1 [2] = target: T1, rFel d 1 (Felis catus, UniProt P30438+P30440); experiment: 1-NPN binding to rFel d 1 (fluorescence titration); set-up: species or system cat
T1 sequence (P30440 18-109): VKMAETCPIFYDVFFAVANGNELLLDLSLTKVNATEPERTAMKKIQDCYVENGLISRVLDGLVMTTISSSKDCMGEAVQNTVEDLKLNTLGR
T1 sequence (P30438 23-92): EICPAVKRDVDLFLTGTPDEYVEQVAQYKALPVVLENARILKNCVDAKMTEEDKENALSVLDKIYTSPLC
Method: To a 1-µM solution of the protein in 50 mM Tris-HCl, pH 7.4, aliquots of 1 mM solution of 1-NPN in methanol were added to final concentrations of 1–20 µM. (a) The representative emission curves experimentally obtained. […] (b) The saturation binding curve obtained from the average of three experiments.
N-Phenyl-1-naphthylamine (1-NPN) was used as a non-polar fluorescent probe in competitive binding experiments with the ligands (Sigma, France) to investigate binding efficiency of semiochemical analogs with pure rFel d 1 (INDOOR Biotechnologies, UK) [30]. The fluorescence experiments were performed on an FP-750 spectrofluorometer (JASCO, Japan) instrument at 25 °C in a right-angle configuration with a 1 cm light path fluorimeter quartz cuvette and 5-nm slits for both excitation and emission. The probe 1-NPN was excited at 337 nm and emission spectra were recorded between 380 and 450 nm, at 25 °C. The protein was dissolved in 50 mM Tris-HCl, pH 7.4, and ligands were added as 1 mM methanol solutions.
The binding of 1-NPN to rFel d 1 was tested at two protein concentrations (1 µM and 2 µM) by titrating the protein solution with aliquots of a 1-mM solution of 1-NPN in methanol to final concentrations of 1–20 µM. The bound ligand was evaluated from the values of fluorescence intensity assuming that the protein was 100% active, with a stoichiometry of 1:1 protein: ligand. […]

rFel d 1 [3] = target: T1, rFel d 1; experiment: 1-NPN displacement screening (fluorescence); format: binding, cat; conditions: 1 µM rFel d 1, 1 μM 1-NPN, 2 µM competitive ligand
Method: (§1) N-Phenyl-1-naphthylamine (1-NPN) was used as a non-polar fluorescent probe in competitive binding experiments with the ligands (Sigma, France) to investigate binding efficiency of semiochemical analogs with pure rFel d 1 (INDOOR Biotechnologies, UK). The fluorescence experiments were performed on an FP-750 spectrofluorometer (JASCO, Japan) instrument at 25 °C in a right-angle configuration with a 1 cm light path fluorimeter quartz cuvette and 5-nm slits for both excitation and emission. The probe 1-NPN was excited at 337 nm and emission spectra were recorded between 380 and 450 nm, at 25 °C. The protein was dissolved in 50 mM Tris-HCl, pH 7.4, and ligands were added as 1 mM methanol solutions.
(§2) Semiochemicals were first screened for their capabilities to bind rFel d 1 using 1 µM of rFel d 1, 1 μM of 1-NPN, and 2 µM of a competitive ligand. […] IC50 was graphically determined from the dose–response curve of each competitor ligand.

rFel d 1 [4] = target: T1, rFel d 1; experiment: Competitive binding assay with the fluorescent probe 1-NPN; set-up: species or system cat; conditions: for IC50: 1 µM rFel d 1, 2 μM 1-NPN, 25 °C, 50 mM Tris-HCl pH 7.4, competitor 0–16 μM; for Kd: calculated from IC50 with K1-NPN […]
Method: Figure 2 Competitive binding of selected fatty acids (a) and steroids (b) to rFel d 1. […] Fluorescence of probe-protein complexes in the absence of a competitor was normalized to 100%.
as §1, §2

## c1ccc(Nc2cccc3ccccc23)cc1 [1-NPN, N-phenyl-1-naphthylamine, reference compound]
[1]
  Topological Polar Surface Area: 12 Å²
rFel d 1 [2]; 1 µM rFel d 1, 50 mM Tris-HCl pH 7.4, 1-NPN 1–20 µM, average of three experiments, read-out: dissociation constant of 1-NPN (GraphPad)
  Kd: 5.8 µM
rFel d 1 [2]; 1 µM rFel d 1, Scatchard plot, read-out: dissociation constant K1-NPN (Scatchard analysis)
  Kd: 4.8 µM

## C[C@]12CCC(=O)C=C1CC[C@@H]1[C@@H]2CC[C@]2(C)C(=O)CC[C@@H]12 [Androstenedione]
[1]
  Topological Polar Surface Area: 34.1 Å²
rFel d 1 [3]
  1-NPN Displacement Screening: Yes

## C[C@]12CC[C@@H](O)C[C@@H]1CC[C@@H]1[C@@H]2CC[C@]2(C)C=CC[C@@H]12 [Androstenol]
[1]
  Topological Polar Surface Area: 20.2 Å²
rFel d 1 [3]
  1-NPN Displacement Screening: No

## CC12C=CCC1C1CCC3CC(=O)CCC3(C)C1CC2 (centres unmarked) [Androstenone]
rFel d 1 [4]; read-out: IC50
  IC50: 3.1 µM
rFel d 1 [4]; read-out: Kd
  Kd: 2.4 µM
[1]
  Topological Polar Surface Area: 17.1 Å²
rFel d 1 [3]
  1-NPN Displacement Screening: Yes

## CCCCCCCCCC(=O)O [Capric acid]
rFel d 1 [3]
  1-NPN Displacement Screening: No

## C[C@]12C[C@H](O)[C@H]3[C@@H](CCC4=CC(=O)CC[C@@]43C)[C@@H]1CC[C@@H]2C(=O)CO [Corticosterone]
[1]
  Topological Polar Surface Area: 74.6 Å²
rFel d 1 [3]
  1-NPN Displacement Screening: No

## C[C@]12CC[C@H](O)CC1=CC[C@@H]1[C@@H]2CC[C@]2(C)C(=O)CC[C@@H]12 [Dehydroepiandrosterone (DHEA), Dehydroepiandrosterone]
[1]
  Topological Polar Surface Area: 37.3 Å²
rFel d 1 [3]
  1-NPN Displacement Screening: Yes

## C[C@]12CCC(=O)C[C@@H]1CC[C@@H]1[C@@H]2CC[C@]2(C)[C@@H](O)CC[C@@H]12 [Dihydrotestosterone]
[1]
  Topological Polar Surface Area: 37.3 Å²
rFel d 1 [3]
  1-NPN Displacement Screening: No

## CCCCCCCCCCCC=O [Dodecanal]
[1]
  Topological Polar Surface Area: 17.1 Å²
rFel d 1 [3]
  1-NPN Displacement Screening: No

## CCCCCCCCCCCCO [Dodecanol]
[1]
  Topological Polar Surface Area: 20.2 Å²
rFel d 1 [3]
  1-NPN Displacement Screening: No

## C[C@]12CC[C@@H]3c4ccc(O)cc4CC[C@H]3[C@@H]1CC[C@@H]2O [Estradiol]
[1]
  Topological Polar Surface Area: 40.5 Å²
rFel d 1 [3]
  1-NPN Displacement Screening: Yes

## C[C@]12CC[C@@H]3c4ccc(O)cc4CC[C@H]3[C@@H]1CCC2=O [Estrone]
rFel d 1 [3]
  1-NPN Displacement Screening: Yes

## CCCCCCCCCCCC(=O)OCC [Ethyl Laurate]
[1]
  Topological Polar Surface Area: 26.3 Å²
rFel d 1 [3]
  1-NPN Displacement Screening: No

## CCCCCCCCCCCCCCCC(N)=O [Hexadecanamide]
[1]
  Topological Polar Surface Area: 43.1 Å²

## CC(=O)[C@@]1(O)CC[C@H]2[C@@H]3CCC4=CC(=O)CC[C@]4(C)[C@H]3CC[C@@]21C [Hydroxyprogesterone]
[1]
  Topological Polar Surface Area: 54.4 Å²
rFel d 1 [3]
  1-NPN Displacement Screening: Yes

## CC(C)C(=O)O [Isobutyric acid]
[1]
  Topological Polar Surface Area: 37.3 Å²

## CCCCCCCCCCCC(=O)O [Lauric acid]
rFel d 1 [4]
  IC50: 3.3 µM
  Kd: 2.6 µM
[1]
  Topological Polar Surface Area: 37.3 Å²
rFel d 1 [3]
  1-NPN Displacement Screening: Yes

## CCCCC/C=C\C/C=C\CCCCCCCC(=O)O [Linoleic acid]
rFel d 1 [4]
  IC50: 10.1 µM
  Kd: 7.8 µM
[1]
  Topological Polar Surface Area: 37.3 Å²
rFel d 1 [3]
  1-NPN Displacement Screening: Yes

## CCCCCCCCCCCCCCCC(=O)OC [Methyl Palmitate]
[1]
  Topological Polar Surface Area: 26.3 Å²
rFel d 1 [3]
  1-NPN Displacement Screening: No

## CCCCCCCCCCCCCC(=O)O [Myristic acid]
rFel d 1 [4]
  IC50: 14.4 µM
  Kd: 11.1 µM
[1]
  Topological Polar Surface Area: 37.3 Å²
rFel d 1 [3]
  1-NPN Displacement Screening: Yes

## CCCCCCCCC(N)=O [Nonanamide]
[1]
  Topological Polar Surface Area: 43.1 Å²

## CCCCCCCCCCCCCCCCCC(N)=O [Octadecanamide]
[1]
  Topological Polar Surface Area: 43.1 Å²

## CCCCCCCC/C=C\CCCCCCCC(=O)O [Oleic acid]
rFel d 1 [4]
  IC50: 10 µM
  Kd: 7.7 µM
[1]
  Topological Polar Surface Area: 37.3 Å²
rFel d 1 [3]
  1-NPN Displacement Screening: Yes

## CCCCCCCCCCCCCCCC(=O)O [Palmitic acid]
rFel d 1 [4]; competitive binding with 1-NPN, among the fatty acids
  affinity to rFel d 1 in words: weakest ligand
[1]
  Topological Polar Surface Area: 37.3 Å²
rFel d 1 [3]
  1-NPN Displacement Screening: Yes

## CC(=O)[C@H]1CC[C@H]2[C@@H]3CC=C4C[C@@H](O)CC[C@]4(C)[C@H]3CC[C@]12C [Pregnenolone]
rFel d 1 [4]; read-out: IC50
  IC50: 13.1 µM
rFel d 1 [4]; read-out: Kd
  Kd: 10.1 µM
[1]
  Topological Polar Surface Area: 37.3 Å²
rFel d 1 [3]
  1-NPN Displacement Screening: Yes

## CC(=O)[C@H]1CC[C@H]2[C@@H]3CCC4=CC(=O)CC[C@]4(C)[C@H]3CC[C@]12C [Progesterone]
rFel d 1 [4]
  IC50: 13.6 µM
  Kd: 10.5 µM
[1]
  Topological Polar Surface Area: 34.1 Å²
rFel d 1 [3]
  1-NPN Displacement Screening: Yes

## C[C@]12CC[C@H]3[C@@H](CCC4=CC(=O)CC[C@@]43C)[C@@H]1CC[C@@H]2O [Testosterone]
[1]
  Topological Polar Surface Area: 37.3 Å²
rFel d 1 [3]
  1-NPN Displacement Screening: Yes

## CCCCCCCCCCCCCCO [Tetradecanol]
[1]
  Topological Polar Surface Area: 20.2 Å²
rFel d 1 [3]
  1-NPN Displacement Screening: No

## Deoxycorticosterone
[1]
  Topological Polar Surface Area: 54.4 Å²
rFel d 1 [3]
  1-NPN Displacement Screening: No
